IC50 data for 19 compounds are collected here from patent US20200199136A1, “PIKFYVE KINASE INHIBITORS” (ACURASTEM INC., priority 2017, published 2020).

By IC50 is commonly meant the concentration that inhibits the measured activity by half.

SMILES strings stand for the structures. Some results are limits rather than exact numbers.

For this assay, the target named is PIKFYVE (Homo sapiens, UniProt Q9Y2I7). Kind of assay: PIKFYVE assay (luciferase ADP-Glo kinase assay, Promega). The format is biochemical. The protocol: The activity of Compounds 1-20 was measured using a PIKFYVE assay (luciferase ADP-Glo kinase assay available from Promega Corp. of Madison, Wis.).
Sequence of PIKFYVE (Q9Y2I7 whole entry): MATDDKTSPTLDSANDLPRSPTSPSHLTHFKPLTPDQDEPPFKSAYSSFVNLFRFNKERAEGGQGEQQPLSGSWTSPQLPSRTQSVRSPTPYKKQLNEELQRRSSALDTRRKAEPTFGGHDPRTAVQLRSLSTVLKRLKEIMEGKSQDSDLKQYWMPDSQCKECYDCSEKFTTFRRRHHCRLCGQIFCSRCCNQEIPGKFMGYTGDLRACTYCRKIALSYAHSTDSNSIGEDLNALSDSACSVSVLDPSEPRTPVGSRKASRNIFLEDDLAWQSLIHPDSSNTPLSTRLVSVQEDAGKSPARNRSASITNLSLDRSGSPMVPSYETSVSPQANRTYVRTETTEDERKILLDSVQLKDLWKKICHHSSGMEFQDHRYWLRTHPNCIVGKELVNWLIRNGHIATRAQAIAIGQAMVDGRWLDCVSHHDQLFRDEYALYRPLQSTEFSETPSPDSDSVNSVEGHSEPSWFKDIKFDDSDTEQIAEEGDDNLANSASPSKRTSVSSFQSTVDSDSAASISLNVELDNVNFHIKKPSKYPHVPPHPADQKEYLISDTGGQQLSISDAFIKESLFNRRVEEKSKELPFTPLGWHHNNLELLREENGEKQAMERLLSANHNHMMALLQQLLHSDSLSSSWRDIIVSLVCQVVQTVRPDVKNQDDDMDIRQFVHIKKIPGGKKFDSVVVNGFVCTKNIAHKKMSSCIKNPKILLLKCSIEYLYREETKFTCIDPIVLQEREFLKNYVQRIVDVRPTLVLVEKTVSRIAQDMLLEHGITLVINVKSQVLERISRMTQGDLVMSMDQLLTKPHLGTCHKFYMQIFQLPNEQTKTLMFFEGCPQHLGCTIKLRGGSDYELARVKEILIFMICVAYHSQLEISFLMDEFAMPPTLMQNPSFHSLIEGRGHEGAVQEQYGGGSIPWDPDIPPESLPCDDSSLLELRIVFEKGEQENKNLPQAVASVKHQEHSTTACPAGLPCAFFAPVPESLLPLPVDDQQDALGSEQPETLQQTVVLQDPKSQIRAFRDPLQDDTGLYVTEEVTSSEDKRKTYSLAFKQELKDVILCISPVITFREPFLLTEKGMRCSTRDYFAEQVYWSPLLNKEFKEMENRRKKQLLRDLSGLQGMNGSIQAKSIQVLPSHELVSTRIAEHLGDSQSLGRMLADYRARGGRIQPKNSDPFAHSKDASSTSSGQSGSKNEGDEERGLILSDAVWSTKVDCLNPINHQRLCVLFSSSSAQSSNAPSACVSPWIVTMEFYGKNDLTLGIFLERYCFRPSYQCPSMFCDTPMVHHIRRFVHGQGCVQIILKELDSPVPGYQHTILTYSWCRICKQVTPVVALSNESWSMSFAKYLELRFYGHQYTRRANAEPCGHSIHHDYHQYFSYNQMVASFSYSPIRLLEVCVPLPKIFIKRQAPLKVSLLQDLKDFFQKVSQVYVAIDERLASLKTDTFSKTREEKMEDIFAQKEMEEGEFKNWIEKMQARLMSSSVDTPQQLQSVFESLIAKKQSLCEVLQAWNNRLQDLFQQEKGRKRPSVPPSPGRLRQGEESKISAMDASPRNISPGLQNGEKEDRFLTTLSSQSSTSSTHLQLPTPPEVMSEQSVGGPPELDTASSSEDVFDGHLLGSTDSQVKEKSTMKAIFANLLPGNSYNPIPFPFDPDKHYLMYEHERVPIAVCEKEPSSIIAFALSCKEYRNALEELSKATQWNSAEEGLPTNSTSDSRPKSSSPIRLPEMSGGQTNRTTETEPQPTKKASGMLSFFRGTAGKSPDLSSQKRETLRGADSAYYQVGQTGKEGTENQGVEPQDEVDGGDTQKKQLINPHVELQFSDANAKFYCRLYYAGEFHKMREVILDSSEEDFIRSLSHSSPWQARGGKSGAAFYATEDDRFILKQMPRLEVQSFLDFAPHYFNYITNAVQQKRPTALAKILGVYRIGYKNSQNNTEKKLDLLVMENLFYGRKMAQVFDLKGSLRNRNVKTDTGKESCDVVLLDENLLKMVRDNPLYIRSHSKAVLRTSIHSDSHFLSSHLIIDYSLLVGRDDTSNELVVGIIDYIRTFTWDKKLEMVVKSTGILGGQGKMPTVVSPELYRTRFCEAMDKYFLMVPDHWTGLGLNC
As for `COc1cccc(-c2ccn(-c3cc(N4CC[C@H]5OCC[C@H]54)nc(OCCc4ccccn4)n3)n2)c1` [Compound 16, (3aR,6aR)-4-(6-(3-(3-methoxyphenyl)-1H-pyrazol-1-yl)-2-(2-(pyridin-2-yl)ethoxy)pyrimidin-4-yl)hexahydro-2H-furo[3,2-b]pyrrole], the IC50 fell in the range of 101 to 1000 nM.
The compound `Cc1cccc(-n2ccc(-c3cc(N4CCOCC4)nc(OCC4CCCO4)n3)n2)c1` (stereo not shown) [Compound 13, 4-(2-((tetrahydrofuran-2-yl)methoxy)-6-(1-(m-tolyl)-1H-pyrazol-3-yl)pyrimidin-4-yl)morpholine] returned an IC50 of 5 to 100 nM.
For `COc1cccc(-c2ccn(-c3cc(N4CC[C@H]5OCC[C@H]54)nc(OCCC(O)CO)n3)n2)c1` (stereo partly drawn) [Compound 8, 4-((4-((3aR,6aR)-hexahydro-4H-furo[3,2-b]pyrrol-4-yl)-6-(3-(3-methoxyphenyl)-1H-pyrazol-1-yl)pyrimidin-2-yl)oxy)butane-1,2-diol] the value was 5 to 100 nM.
`Cc1cccc(-c2ccn(-c3cc(C4CCOC4)nc(OCC4CCCO4)n3)n2)c1` (stereo not shown) [Compound 17, 2-((tetrahydrofuran-2-yl)methoxy)-4-(tetrahydrofuran-3-yl)-6-(3-(m-tolyl)-1H-pyrazol-1-yl)pyrimidine] showed an IC50 of 5 to 100 nM.
For `Cc1cccc(-c2ccn(-c3cc(N4CC[C@H]5OCC[C@H]54)nc(CCc4ncccn4)n3)n2)c1` [Compound 19] the value was 5 to 100 nM; for `COc1cccc(-c2ccn(-c3cc(N4CC[C@H]5OCC[C@H]54)nc(OCCc4scnc4C)n3)n2)c1` [Compound 6, (3aR,6aR)-4-(6-(3-(3-methoxyphenyl)-1H-pyrazol-1-yl)-2-(2-(4-methylthiazol-5-yl)ethoxy)pyrimidin-4-yl)hexahydro-2H-furo[3,2-b]pyrrole], 5 to 100 nM; for `Cc1cccc(-c2csc(-c3cc(N4CCOCC4)nc(OCC4CCCO4)n3)n2)c1` (stereo not shown) [Compound 12, 4-(2-((tetrahydrofuran-2-yl)methoxy)-6-(4-(m-tolyl)thiazol-2-yl)pyrimidin-4-yl)morpholine], 5 to 100 nM.
As for `COc1cccc(-c2ccn(-c3cc(N4CCOCC4)nc(OCCC4CCOCC4)n3)n2)c1` [Compound 3, 4-(6-(3-(3-methoxyphenyl)-1H-pyrazol-1-yl)-2-(2-(tetrahydro-2H-pyran-4-yl)ethoxy)pyrimidin-4-yl)morpholine], the IC50 was less than 5 nM.
For `Cc1cccc(-c2ccn(-c3cc(N4CCCOCC4)nc(OCC4CCCO4)n3)n2)c1` (stereo not shown) [Compound 14, 4-(2-((tetrahydrofuran-2-yl)methoxy)-6-(3-(m-tolyl)-1H-pyrazol-1-yl)pyrimidin-4-yl)-1,4-oxazepane] the value was 101 to 1000 nM; for `COc1cccc(-c2ccn(-c3cc(N4CCOCC4)nc(OCC4CCCO4)n3)n2)c1` (stereo not shown) [Compound 2, 4-(6-(3-(3-methoxyphenyl)-1H-pyrazol-1-yl)-2-((tetrahydrofuran-2-yl)methoxy)pyrimidin-4-yl)morpholine], less than 5 nM.
`COc1cccc(-c2ccn(-c3cc(N4CCOCC4)nc(OCCC(O)CO)n3)n2)c1` (stereo not shown) [Compound 9, 4-((4-(3-(3-methoxyphenyl)-1H-pyrazol-1-yl)-6-morpholinopyrimidin-2-yl)oxy)butane-1,2-diol]: the IC50 is less than 5 nM.
For `COc1cccc(-c2ccn(-c3cc(N4CC[C@H]5OCC[C@H]54)nc(OCC4CCCO4)n3)n2)c1` (stereo partly drawn) [Compound 1, (3aR,6aR)-4-(6-(3-(3-methoxyphenyl)-1H-pyrazol-1-yl)-2-((tetrahydrofuran-2-yl)methoxy)pyrimidin-4-yl)hexahydro-2H-furo[3,2-b]pyrrole] the value was 5 to 100 nM; for `COc1cccc(-c2ccn(-c3cc(N4CC[C@H]5OCC[C@H]54)nc(OCCO)n3)n2)c1` [Compound 5, 2-((4-((3aR,6aR)-hexahydro-4H-furo[3,2-b]pyrrol-4-yl)-6-(3-(3-methoxyphenyl)-1H-pyrazol-1-yl)pyrimidin-2-yl)oxy)ethan-1-ol], 101 to 1000 nM.
For `COC1CCN(c2cc(-n3ccc(-c4cccc(C)c4)n3)nc(OCC3CCCO3)n2)C1` (stereo not shown) [Compound 15, 4-(3-methoxypyrrolidin-1-yl)-2-((tetrahydrofuran-2-yl)methoxy)-6-(3-(m-tolyl)-1H-pyrazol-1-yl)pyrimidine] the value was 1000 to 10000 nM; for `COc1cccc(-c2ccn(-c3cc(N4CCOCC4)nc(OCCc4scnc4C)n3)n2)c1` [Compound 7, 4-(6-(3-(3-methoxyphenyl)-1H-pyrazol-1-yl)-2-(2-(4-methylthiazol-5-yl)ethoxy)pyrimidin-4-yl)morpholine], less than 5 nM.
For the compound `c1ccc(-c2ccn(-c3cc(N4CC[C@H]5OCC[C@H]54)nc(OCCc4ccccn4)n3)n2)cc1` [Compound 4, (3aR,6aR)-4-(6-(3-phenyl-1H-pyrazol-1-yl)-2-(2-(pyridin-2-yl)ethoxy)pyrimidin-4-yl)hexahydro-2H-furo[3,2-b]pyrrole], the IC50 is 101 to 1000 nM.
Turning to `Cc1cccc(-c2ccn(-c3cc(N4CCOCC4CO)nc(CCC4CCCO4)n3)n2)c1` (stereo not shown) [Compound 20, (4-(2-(2-(tetrahydrofuran-2-yl)ethyl)-6-(3-(m-tolyl)-1H-pyrazol-1-yl)pyrimidin-4-yl)morpholin-3-yl)methanol], the IC50 is 5 to 100 nM.
For `c1ccc(-c2cn(-c3cc(N4CCOCC4)nc(OCCc4ccccn4)n3)cn2)cc1` [Compound 10, 4-(6-(4-phenyl-1H-imidazol-1-yl)-2-(2-(pyridin-2-yl)ethoxy)pyrimidin-4-yl)morpholine] the value was 1000 to 10000 nM; for `Cc1cccc(-c2csc(-c3cc(N4CC[C@H]5OCC[C@H]54)nc(OCC4CCCO4)n3)n2)c1` (stereo partly drawn) [Compound 11, (3aR,6aR)-4-(2-((tetrahydrofuran-2-yl)methoxy)-6-(4-(m-tolyl)thiazol-2-yl)pyrimidin-4-yl)hexahydro-2H-furo[3,2-b]pyrrole], 101 to 1000 nM.
